Data published in patent publication US11911406B2, “PH-responsive polymer-drug conjugates for enhanced antibacterial efficacy” (priority 2020, dated 2024).

Columns and labels:
[1] = Streptomycin release kinetics (dialysis, HPLC); format: physicochemical
Method: Streptomycin release kinetics. […] The bags were put into the PBS buffers with the corresponding pH, and incubated in a 37° C. shaker. At different time intervals, 100 μL sample outside the dialysis bag was collected for HPLC analysis.

[2] = system: P. aeruginosa in Raw 264.7 macrophage; assay: Antibacterial activity for intracellular infection; format: cell-based; conditions: Raw 264.7 infected with P. aeruginosa, pH 7.4 and 6.0, 1 day
Method: (§1) Antibacterial activity for intracellular infection. The antibacterial activity for intracellular infection was tested following the previous report. Briefly, macrophage Raw 264.7 cells were seeded in 96-well plate at a density of 1×10^4 cell/swell overnight and infected with MRSA or P. aeruginosa at a ratio of 10-20 bacteria per macrophage in FBS free RPMI 1640 medium. After 3 h incubation, the cells were washed and cultured in 1640 medium containing 10% FBS and 50 μg/mL gentamycin for one day to prevent the growth of extracellular bacteria. Then the macrophages were treated with free streptomycin or PDC for another day and lysed with Milli-Q water supplemented with 0.1% Triton-X. The cell lysates were serially diluted and the CFU in each well was determined by plating on MHB agar plates.

[3] = system: MRSA in Raw 264.7 macrophage; assay: Antibacterial activity for intracellular infection; format: cell-based; conditions: Raw 264.7 infected with S. aureus, pH 7.4 and 6.0, 1 day
Method: as §1

P. aeruginosa ATCC 27853 = assay: Mouse lung infection model; format: in vivo, ICR mice
Method: Mouse lung infection model. […] In another experiment of monitoring the mice survival for the lung infection model, the P. aeruginosa infected mice were given 2 treatments (1 h and 8 h after the infection) and their survival was observed using Kaplan-Meier curves (n=5).

S. aureus (Newman) = assay: MIC, broth microdilution; format: cell-based
Method: (§2) Bacterial strains. S. aureus Newman was kindly provided by Prof Douglas Weibel; E. coli ATCC25922, S. aureus ATCC 33591 and P. aeruginosa ATCC 27853 were kindly donated by Prof. David Andes. E. coli DH5a was purchased from Thermo Fisher. The bacteria above were grown in Mueller Hinton Broth (MHB) media (Criterion, Santa Maria, Calif., USA). M. smegmatis mc^2155 strain was kindly donated by Prof. Adel M. Talaat, and was grown in Middlebrook 7H9 broth (HiMedia, West Chester, Pa., USA).
(§3) Minimal inhibitory concentration (MIC) measurements. The MIC of the different treatments on various bacteria strains was determined using the broth microdilution method. Briefly, 100 μL of the respective broth media containing serial twofold dilutions of each compound was placed into a 96-well tissue culture plate. Each bacterial strain was taken from an exponentially growing culture and diluted to 5×10^6 CFU/mL. 10 μL of such microbial suspension was inoculated in each well of the plate, resulting in a final bacteria concentration of approximately 5×10^5 CFU/mL. The bacteria were cultured at 37° C. for 24 h and their growth were observed by reading the optical density (OD) at 600 nm. The MIC was determined as the treatment concentration at which no microbial growth was observed. Broth containing microbial cells alone was used as a positive control and broth without bacteria inoculation was used as a negative control. Each test was carried out in 3 replicates.

[4] = system: P. aeruginosa (ATCC 27853); assay: MIC, broth microdilution; format: cell-based
Method: as §2, §3

M. smegmatis (MC^2 155) = assay: MIC, broth microdilution; format: cell-based
Method: as §2, §3

E. coli (ATCC 25922) = assay: MIC, broth microdilution; format: cell-based
Method: as §2, §3

[5] = system: S. aureus (MRSA ATCC33591); assay: MIC, broth microdilution; format: cell-based
Method: as §2, §3

E. coli (DH5 alpha) = assay: MIC, broth microdilution; format: cell-based
Method: as §2, §3

E. coli biofilm = assay: Biofilm inhibition assay (crystal violet); format: cell-based; conditions: streptomycin concentration 16 μg/mL
Method: (§4) Biofilm inhibition assays. Exponentially growing bacteria were inoculated into 96 well plates (1×10^4 cell/well) containing MHB broth with 2% (v/w) glucose, incubated under stationary conditions at 37° C. for one day. After biofilm formation, the media was discarded and the plates were washed with PBS to remove the planktonic bacteria. Fresh NMB broth containing serially diluted free streptomycin or PDC were added to the plates and incubated at 37° C. for another 24 h. The media in each well was then removed, and the plates were washed carefully with PBS for 1 time. The biofilm in each well was fixed with 95% ethanol for 15 min and stained with 0.1% crystal violet for 15 min. After washing with Milli-Q water for three times, 33% v/v acetic acid (100 μL/well) was added to solubilize the crystal violet staining. OD 560 in each well was read to determine the biofilm formation. The biofilm formed as described above was also stained with acridine orange and Cy5 labeled PDC, and monitored by CLSM to observe the PDC penetration.

P. aeruginosa biofilm = assay: Biofilm inhibition assay (crystal violet); format: cell-based; conditions: 256 μg/mL streptomycin
Method: as §4

## Hex-Cys-Cys-DET-strep-DMA [Neutralized PDC]
[1]; pH 6.0, within 48 h
  streptomycin release: about 70%
[1]; pH 7.4, at 48 h
  streptomycin release: about 20%
[2]
  antibacterial efficacy on intracellular bacteria (CFU), in words: enhanced the antibacterial efficacy
[3]
  antibacterial efficacy on intracellular bacteria (CFU), in words: enhanced the antibacterial efficacy
P. aeruginosa ATCC 27853; 2 i.v. injections (1 h and 8 h after the infection)
  survival, in words: all of the PDC treated mice survived
P. aeruginosa ATCC 27853; single i.v. injection 1 h after infection, CFU per lung at 12 h
  bacterial burden in lungs, in words: lowest bacterial burden in their lungs
S. aureus (Newman); pH 6.0
  MIC S. aureus (Newman): 20 µg/mL
S. aureus (Newman); pH 7.4
  MIC S. aureus (Newman): 80 µg/mL
[4]; pH 6.0
  MIC P. aeruginosa (ATCC 27853): 40 µg/mL
[4]; pH 7.4
  MIC P. aeruginosa (ATCC 27853): 160 µg/mL
M. smegmatis (MC^2 155); pH 6.0
  MIC M. smegmatis (MC^2 155): 2.5 µg/mL
M. smegmatis (MC^2 155); pH 7.4
  MIC M. smegmatis (MC^2 155): 20 µg/mL
E. coli (ATCC 25922); pH 6.0
  MIC E. coli (ATCC 25922): 20 µg/mL
E. coli (ATCC 25922); pH 7.4
  MIC E. coli (ATCC 25922): 80 µg/mL
[5]; pH 6.0
  MIC S. aureus (MRSA ATCC33591): 40 µg/mL
[5]; pH 7.4
  MIC S. aureus (MRSA ATCC33591): 160 µg/mL
E. coli (DH5 alpha); pH 6.0
  MIC E. coli (DH5 alpha): 20 µg/mL
E. coli (DH5 alpha); pH 7.4
  MIC E. coli (DH5 alpha): 80 µg/mL
E. coli biofilm
  biofilm eliminated: 75%
P. aeruginosa biofilm
  biofilm reduced / removed: 96%
